In patent publication US10070660B2, “Pet food palatability with antimicrobial properties based on organic acids” (KEMIN INDUSTRIES, INC., priority 2012, dated 2018):
“Also recorded” adds a separate entry of the source.

How the values were obtained:
cats = test: Cat palatability, two-pan method (intake ratio); type: in vivo; conditions: for IR-A: Ration B incumbent; for IR: vs name brand cat food
[1] = system: Salmonella (five Salmonella enterica serovars); test: Cat kibble challenge with dried five strain Salmonella cocktail inoculum; type: cell-based
Description: (§1) One ml of each Salmonella culture was separately inoculated into a beaker containing tempered (ambient), sterilized MBM which was then incubated at 37° C. for 48 hours. Inoculated MBM was dispensed (approx. 200 g) into sterile 250 ml centrifuge bottles and centrifuged at 5,000 rpm for 10 minutes. The supernatant was decanted and autoclaved for disposal. The pellets were suspended in 10 ml TSB-20% glycerol. Suspensions (approximately 150-160 g) were transferred to sterilized 250 ml polycarbonate straight side wide mouth jars with lids (Nalgene, Thermo Scientific). Jars containing MBM-Salmonella suspensions were immediately frozen at −70° C. for 1 hour. Frozen MBM-Salmonella suspensions were lyophilized using a FreeZone-1 Liter benchtop freeze dry system (Labconco) (approx. 96 hours, −50° C.). Each lyophilized Salmonella culture was pulverized to a fine powder using a sterile mortar and pestle. Twenty g of each of the five lyophilized Salmonella cultures was combined in a sterile wide mouth glass jar to make the dried Salmonella cocktail inoculum. […] Solidified plates were incubated inverted at 37° C. for 16-18 hours. Visible colonies were counted and colony forming units per gram were calculated (CFU/g). […] Kibble and inoculum were mixed together for five minutes by hand in a plastic zip top bag, and allowed to rest for 1 hour prior to sampling. Coated, un-inoculated kibble was also included in the study and tested for Salmonella (direct plating and FDA BAM), total aerobic bacteria, mold and yeast counts, pH, percent moisture, and water activity. For each analysis time point challenged kibble was sampled in triplicate. Kibbles were stored at ambient temperature.
(§2) Challenged kibble samples bags were mixed thoroughly, then 5.00 g (±0.01) was aseptically weighed into a sterile plastic bag and diluted with 45 ml sterile Phosphate Buffer (Butterfield) diluent (BPB) containing (g/l) KH2PO4 34.0, pH adjusted to 7.2 with 1N sodium hydroxide and homogenized using a Stomacher (Seward Stomacher 80) for 1 minute and serially diluted in BPB for plating. The plates are poured with tempered (45° C.) XLD agar. After solidification, plates were inverted and placed in an incubator (37° C.). Colonies were counted and CFU/g was calculated. The counts for each triplicate sample were averaged and expressed as log CFU/g. Those samples of which were below the detection limit of <10 CFU/g were assigned 0 log CFU/g for the purpose of statistical analysis. Analysis of Variance using the LSD separation of means method was performed to analyze the data using StatGraphics software (StatPoint Technologies, Inc. Warrenton, Va.).
All procedures for the Phase 3 kibble challenge were conducted as described for Phase 2.

[2] = system: Salmonella (five Salmonella enterica serovars); test: Dog kibble challenge with dried five strain Salmonella cocktail inoculum; type: cell-based
Description: as §1, §2
Dry dog palatants were formulated with fumaric acid or SBS to deliver 0.5% acid to the surface of the kibble. The effect of each acid on Salmonella challenged on the surface of dog kibble was examined. Dog kibbles were challenged with dried five strain Salmonella cocktail inoculum.
The effect of each acid on Salmonella challenged on the surface of dog kibble was examined. Dog kibbles were challenged with dried five strain Salmonella cocktail inoculum prep.

[3] = pH of fumaric acid-TSB solutions; type: physicochemical
Description: A 0.20% stock solution of fumaric acid was made by dissolving 0.100 g (w/v) fumaric acid in 50 ml sterile deionized water in a flask. The 0.20% stock was diluted 1:2 in sterile deionized water to obtain a 0.10% fumaric acid solution, which was then diluted 1:2 to obtain a 0.05% fumaric acid solution. Each fumaric acid stock solution (0.20%, 0.10% and 0.05%) was further diluted 1:2 in TSB (pH 4.9) to yield fumaric acid-TSB solutions of 0.100%, 0.050% and 0.025%. The pH of each fumaric-TSB solution was measured (Table 1). One hundred μl of each fumaric-TSB solution was added to triplicate wells containing 100 μl standardized inoculum. One hundred μl of untreated (0% fumaric) TSB (pH 4.9) was added to triplicate wells containing 100 μl standardized inoculum as a control. The microplate was placed in a Versamax Microplate Reader (Molecular Devices) (37° C.) with wavelength set to 600 nm. The optical density (OD600) was read every 2 hours for 48 hours.

[4] = pH of 5% (w/v) solution of cat palatant formulated with fumaric acid; type: physicochemical
Description: Preparation of palatant samples. Four samples of a cat palatant formulated with varying levels of fumaric acid (Table 6) were aseptically weighed in duplicate sterile 50 ml conical test tubes. To each test tube, 10 ml of sterile deionized water was added and mixed by vortex. The pH of a 5% (w/v) solution of each palatant was also measured (Table 6).

Compound: O=C(O)/C=C/C(=O)O [Fumaric Acid, fumaric acid]
- IR-A (cats; Confirmation trials, Prototype 89-87, 0.25% acid on kibble (so in the source)): 0.65 (p ≤ 0.05)
- palatability (in words) (cats; Example 4 cat trials, formula 89-87 or 89-145 vs incumbent dry palatant): parity palatability score; also recorded: scores improved
- IR-A (cats; First set, Prototype 89-87 at 2.5%, 0.5% total acid on kibble): 0.46 (N.S.)
- IR (cats; Trial 412 (so in the source), 20% fumaric acid in formula (80 mesh), 0.30% on kibble): 0.77
- IR (cats; Trial 426, 14% fumaric acid in formula (30 mesh sieve), 0.21% on kibble): 0.57
- IR (cats; Trial 465, 14% fumaric acid in formula (80 mesh sieve), 0.21% on kibble): 0.62
- IR (cats; Trial 481, 27% fumaric acid in formula (80 mesh), ~0.41% on kibble): 0.74
- Salmonella ([1]; Table 4, 0.21% on cat kibble, day 0): 2.79 ± 0.35^Aa log CFU/g
- Salmonella ([1]; Table 4, 0.21% on cat kibble, day 1): 2.85 ± 0.07^Aa log CFU/g
- Salmonella ([1]; Table 4, 0.21% on cat kibble, day 8): 2.02 ± 0.13^Bab log CFU/g
- Salmonella ([1]; Table 4, 0.21% on cat kibble, day 14): 1.44 ± 0.24^Bbc log CFU/g
- Salmonella ([1]; Table 4, 0.21% on cat kibble, day 22): 0.77 ± 0.39^Bc log CFU/g
- Salmonella ([1]; Table 5, 0.30% on cat kibble, day 0): 2.44 ± 0.21^Aa log CFU/g
- Salmonella ([1]; Table 5, 0.30% on cat kibble, day 1): 1.26 ± 0.14^Bab log CFU/g
- Salmonella ([1]; Table 5, 0.30% on cat kibble, day 5): 0.57 ± 0.57^Bb log CFU/g
- Salmonella ([1]; Table 5, 0.41% on cat kibble, day 0): 1.46 ± 0.09^Ba log CFU/g
- Salmonella ([1]; Table 5, 0.41% on cat kibble, day 1, below detection limit assigned 0): 0.0 ± 0.0^Cb* log CFU/g
- Salmonella ([1]; Table 5, 0.41% on cat kibble, day 5, below detection limit assigned 0): 0.0 ± 0.0^Bb* log CFU/g
- Salmonella ([1]; Table 12, 0.50% total acid on cat kibble, day 0): 3.38 ± 0.02^Ba log CFU/g
- Salmonella ([1]; Table 12, 0.50% total acid on cat kibble, day 1): 1.98 ± 0.02^Bb log CFU/g
- Salmonella ([1]; Table 12, 0.50% total acid on cat kibble, day 5): 1.10 ± 0.10^Bc log CFU/g
- Salmonella ([1]; Table 12, 0.50% total acid on cat kibble, day 7): 0.33 ± 0.33^Bd log CFU/g
- Salmonella ([1]; Table 12, 0.50% total acid on cat kibble, day 14): 0.33 ± 0.33^Bd log CFU/g
- Salmonella ([1]; Table 12, 0.50% total acid on cat kibble, day 21): 0.00 ± 0.00^Bd log CFU/g
- Salmonella counts on challenged cat kibble vs control palatant (in words) ([1]; cat kibble challenge): significant efficacy against Salmonella spp; also recorded: significantly lower Salmonella counts; also recorded: demonstrated antimicrobial activity; also recorded: significant reduction in Salmonella count; also recorded: dose response
- Salmonella counts ([1]; highest level of fumaric acid on cat kibble, after 1 day, detection limit): < 10 CFU/g
- Salmonella ([2]; Table 15, 0.50% on dog kibble, day 0): 1.98 ± 0.14^Ca log CFU/g
- Salmonella ([2]; Table 15, 0.50% on dog kibble, day 1): 1.10 ± 0.10^Cb log CFU/g
- Salmonella ([2]; Table 15, 0.50% on dog kibble, day 3): 0.77 ± 0.39^Abc log CFU/g
- Salmonella ([2]; Table 15, 0.50% on dog kibble, day 7): 0.33 ± 0.33^Bcd log CFU/g
- Salmonella ([2]; Table 15, 0.50% on dog kibble, day 9): 0.33 ± 0.33^Bcd log CFU/g
- Salmonella ([2]; Table 15, 0.50% on dog kibble, day 14): 0.00 ± 0.00^Bd log CFU/g
- Salmonella ([2]; Table 15, 0.50% on dog kibble, day 21): 0.00 ± 0.00^Bd log CFU/g
- Salmonella ([2]; Table 17, total of 0.5% acid on dog kibble, day 0): 1.99 ± 0.22^CDa log CFU/g
- Salmonella ([2]; Table 17, total of 0.5% acid on dog kibble, day 1): 0.43 ± 0.43^Bb log CFU/g
- Salmonella ([2]; Table 17, total of 0.5% acid on dog kibble, day 6): 0.00 ± 0.00^Bb log CFU/g
- Salmonella ([2]; Table 17, total of 0.5% acid on dog kibble, day 14): 0.00 ± 0.00^Bb log CFU/g
- Salmonella ([2]; Table 17, total of 0.5% acid on dog kibble, day 21): 0.00 ± 0.00^Bb log CFU/g
- Salmonella counts on challenged dog kibble vs control palatant (in words) ([2]; dog kibble challenge): significantly lower Salmonella counts than the control and SBS formula
- pH in TSB ([3]; 0.025% fumaric acid): 4.67
- pH in TSB ([3]; 0.050% fumaric acid): 4.42
- pH in TSB ([3]; 0.100% fumaric acid): 4.06
- pH ([4]; cat palatant with 14% fumaric acid in formula): 3.15
- pH ([4]; cat palatant with 20% fumaric acid in formula): 3.01
- pH ([4]; cat palatant with 27% fumaric acid in formula): 2.93
